The values that follow come from ChEMBL document CHEMBL1126256, “Structural modifications of camptothecin and effects on topoisomerase I inhibition” (J Med Chem, 1992).

The source made the active and inactive calls. No cut-off for these calls is given here.

Assay [1] deals with T1, DNA topoisomerase 1 (Homo sapiens) (UniProt P11387).
T1 sequence (whole entry): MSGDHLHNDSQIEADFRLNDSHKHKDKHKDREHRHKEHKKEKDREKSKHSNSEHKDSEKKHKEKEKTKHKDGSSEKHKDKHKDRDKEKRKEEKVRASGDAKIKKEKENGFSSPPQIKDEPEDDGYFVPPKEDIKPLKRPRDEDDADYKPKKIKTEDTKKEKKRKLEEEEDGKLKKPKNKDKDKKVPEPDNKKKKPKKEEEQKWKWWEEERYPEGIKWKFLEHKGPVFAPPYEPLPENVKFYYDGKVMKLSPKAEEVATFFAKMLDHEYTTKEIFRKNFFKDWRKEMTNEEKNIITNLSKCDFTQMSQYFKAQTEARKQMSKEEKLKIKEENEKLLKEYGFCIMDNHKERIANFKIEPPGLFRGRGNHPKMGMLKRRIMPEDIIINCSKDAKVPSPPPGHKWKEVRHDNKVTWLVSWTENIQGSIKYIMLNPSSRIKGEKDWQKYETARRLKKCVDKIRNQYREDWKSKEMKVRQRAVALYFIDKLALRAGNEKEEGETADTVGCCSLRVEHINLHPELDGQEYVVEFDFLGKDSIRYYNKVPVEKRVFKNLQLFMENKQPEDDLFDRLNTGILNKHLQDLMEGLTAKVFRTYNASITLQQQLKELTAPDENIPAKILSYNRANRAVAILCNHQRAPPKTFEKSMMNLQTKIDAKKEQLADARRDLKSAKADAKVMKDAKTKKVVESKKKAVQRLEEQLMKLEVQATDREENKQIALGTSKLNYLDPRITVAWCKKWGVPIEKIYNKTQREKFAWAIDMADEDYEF
Kind of assay: Relative activity against DNA topoisomerase I was measured at concentration of 833 uM to that of camptothecin; Inactive.

Assay [2] has as its target T1, DNA topoisomerase 1 (Homo sapiens). Kind of assay: Relative activity against DNA topoisomerase I was measured at concentration of 200 uM to that of camptothecin; Inactive.
For assay [3] the target is unchanged. Put plainly: Relative activity against DNA topoisomerase I was measured at concentration of 625 uM to that of camptothecin; Inactive.
Assay [4] has the same target. Put plainly: Relative activity against DNA topoisomerase I was measured at concentration of 12 uM to that of camptothecin.
The target is the same in assay [5]. Kind of assay: Relative activity against Topoisomerase I was measured at concentration of 360 uM to that of camptothecin; Active, 35 fold less than camptothecin.
Assay [6] shares this target. Kind of assay: Relative activity against DNA topoisomerase I was measured at concentration of 277 uM to that of camptothecin; inactive.
Assay [7] has the same target. Kind of assay: Relative activity against DNA topoisomerase I was measured at concentration of 554 uM to that of camptothecin; Active, 50 fold less than camptothecin.
The target is the same in assay [8]. Put plainly: Relative activity against DNA topoisomerase I was measured at concentration of 166 uM to that of camptothecin; Inactive.
Assay [9] shares this target. Kind of assay: Relative activity against Topoisomerase I was measured at concentration of 25 uM to that of camptothecin; Inactive.
For assay [10] the target is unchanged. Kind of assay: Relative activity against DNA topoisomerase I was measured at concentration of 83 uM to that of camptothecin; Active, 10 fold less than camptothecin.

As to `CCC(C(=O)OC)c1cc(=O)n2c(c1C(=O)OC)C1Cc3ccccc3CC1C2` (configuration not stated), in assay [1], the Relative activity result was “inactive”.

As for `COC(=O)Cc1cc(=O)n2c(c1C(=O)OC)C1Cc3ccccc3CC1C2` (configuration not stated), the Relative activity entry in assay [1] is “inactive”.

Consider `CCC1C(=O)OCc2c1c(C(=O)OC)c1n(c2=O)CC2Cc3ccccc3CC12` (configuration not stated), for which the Relative activity result in [1] was “inactive”.

Take `CCC(C(=O)OC)c1cc2n(c(=O)c1)Cc1cc3ccccc3nc1-2` (configuration not stated): in [2], the Relative activity result is “inactive”.

In the case of `CCC(C(=O)OC)c1cc(=O)n2c(c1C(=O)OC)-c1nc3ccccc3cc1C2` (configuration not stated), the Relative activity entry in assay [3] is “inactive”.

Turning to `CCC1C(=O)OCc2c1c(C(=O)OC)c1n(c2=O)Cc2ccccc2-1` (configuration not stated), the Relative activity entry in assay [4] was “inactive”. The Relative activity result in assay [5] is “Active”.

For `COC(=O)Cc1cc2n(c(=O)c1)Cc1cc3ccccc3nc1-2`, the Relative activity entry in [6] is “inactive”. Further, the Relative activity entry in [7] was “Active”.

As for `COC(=O)Cc1cc(=O)n2c(c1C(=O)OC)-c1nc3ccccc3cc1C2`, the Relative activity result in assay [8] was “inactive”.

As to `CCC1C(=O)OCc2c1cc1n(c2=O)Cc2ccccc2-1` (configuration not stated), the Relative activity result in assay [9] was “inactive”. The Relative activity entry in assay [10] was “Active”.
